Test results reported in patent US8048440B2, “Thermoplastic fluoropolymer-coated medical devices” (Gore Enterprise Holdings, Inc., priority 2002, dated 2011).
Where a name gives a salt, the structure may show the parent alone.

Experiment: release of chlorhexidine dihydrochloride from the pocketed TFE/PMVE film composite in PBS, with needle puncture
Format: physicochemical
Conditions: 1 cm by 1 cm composite in PBS at 37° C., punctured with 16-gauge needle
Description: A polypropylene template with 0.7 mm diameter holes arranged in a rectangle pattern was made to facilitate manufacturing of the device. The holes were evenly spaced approximately 2 mm apart, from edge to edge. This template was placed on top of one of the TFE/PMVE extruded sheets, then dusted with chlorhexidine dihydrochloride. The template was removed, leaving a dot-matrix pattern of the drug on the surface of the extruded film. A second sheet of extruded polymer was gently placed on top of the first sheet. The composite of polymer sheets and drug was wrapped in aluminum foil, placed between two metal plates, heated in an oven set at 115° C. for 15 minutes, removed from the oven, immediately pressed between the two hot metal plates for 15 minutes, and then removed from the metal plates and aluminum foil. This process created encapsulated drug pockets between the polymer films. An approximately 1 cm by 1 cm square of finished material was placed into phosphate buffered saline (PBS) at 37° C., periodically sampled for antimicrobial content, and punctured with a 16-gauge needle. The release of the chlorhexidine dihydrochloride as a function of puncturing the composite and time in solution is shown in FIG. 7C. […] Thus, an additional dose of the drug can be delivered on demand as a consequence of puncturing drug pockets.

[H]/N=C(\N/C(=N/[H])NCCCCCCNC(=N)NC(=N)Nc1ccc(Cl)cc1)Nc1ccc(Cl)cc1 [chlorhexidine dihydrochloride]
release of chlorhexidine dihydrochloride as a function of puncturing and time in solution: continuously released at a minimal level until the composite was punctured with the needle
